Test results reported in patent US6593357B1, “Pyrazole compositions useful as inhibitors of ERK” (Vertex Pharmaceuticals Incorporated, priority 2000, dated 2003).

Biological target: ERK2 (Homo sapiens, UniProt P28482)
Experiment: ERK2 inhibition, spectrophotometric coupled-enzyme assay
Type: biochemical
Conditions: activated ERK2 10 nM, 65 μM ATP, 30° C., pH 7.5; read-out: ERK2 Inhibitory Activity (Ki class)

Sequence of ERK2 (P28482 whole entry): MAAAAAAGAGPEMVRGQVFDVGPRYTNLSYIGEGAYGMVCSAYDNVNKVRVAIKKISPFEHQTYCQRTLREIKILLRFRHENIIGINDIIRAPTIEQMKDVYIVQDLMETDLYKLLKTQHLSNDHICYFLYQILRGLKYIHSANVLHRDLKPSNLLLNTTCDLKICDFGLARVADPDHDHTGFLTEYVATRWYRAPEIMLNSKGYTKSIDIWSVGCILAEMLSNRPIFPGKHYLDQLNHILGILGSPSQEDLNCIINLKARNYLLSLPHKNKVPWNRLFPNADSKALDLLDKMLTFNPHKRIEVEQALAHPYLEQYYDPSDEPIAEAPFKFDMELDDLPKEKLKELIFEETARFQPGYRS

Row | Compound | Ki
1 | CCOC(=O)c1cc(-c2[nH]ncc2-c2ccccc2)c[nH]1 [II-2] | > 5000 nM
2 | NNC(=O)c1cc(-c2[nH]ncc2-c2cccc([N+](=O)[O-])c2)c[nH]1 [II-3] | < 1000 nM
3 | O=C(c1cc(-c2[nH]ncc2-c2ccccc2)c[nH]1)N1CCCC1 [II-4] | < 1000 nM
4 | O=C(NCc1ccccc1)c1cc(-c2n[nH]cc2-c2ccccc2)c[nH]1 [II-5, 4-(4-phenyl-1H-pyrazole-3-yl)-1H-pyrrole-2-carboxylic acid benzylamide] | < 1000 nM
5 | CCOC(=O)c1cc(-c2[nH]ncc2-c2cccc([N+](=O)[O-])c2)c[nH]1 [II-6] | < 1000 nM
6 | CCOC(=O)c1cc(-c2[nH]ncc2-c2ccc(Cl)cc2)c[nH]1 [II-7] | > 5000 nM
7 | CCOC(=O)c1cc(-c2[nH]ncc2-c2ccc(OC)cc2)c[nH]1 [II-8] | > 5000 nM
8 | CCOC(=O)c1cc(-c2[nH]ncc2-c2cccc(N)c2)c[nH]1 [II-9] | > 5000 nM
9 | CCOC(=O)c1cc(-c2[nH]ncc2-c2cccc(OC)c2)c[nH]1 [II-10] | > 5000 nM
10 | CCOC(=O)c1cc(-c2[nH]ncc2-c2ccc(F)cc2)c[nH]1 [II-11] | > 5000 nM
11 | CCOC(=O)c1cc(-c2[nH]ncc2-c2cccc(Cl)c2)c[nH]1 [II-13] | < 1000 nM
12 | O=C(NCc1cccnc1)c1cc(-c2[nH]ncc2-c2ccccc2)c[nH]1 [II-18] | < 1000 nM
13 | O=C(c1cc(-c2[nH]ncc2-c2ccccc2)c[nH]1)N1CCOCC1 [II-19] | < 1000 nM
14 | CC(C)NC(=O)c1cc(-c2[nH]ncc2-c2ccccc2)c[nH]1 [II-20] | < 1000 nM
15 | CN1CCN(C(=O)c2cc(-c3[nH]ncc3-c3ccccc3)c[nH]2)CC1 [II-21] | > 5000 nM
16 | O=C(NCc1ccco1)c1cc(-c2[nH]ncc2-c2ccccc2)c[nH]1 [II-22] | < 1000 nM
17 | COc1cccc(-c2cn[nH]c2-c2c[nH]c(C(=O)N(C)C)c2)c1 [II-23] | < 1000 nM
18 | COc1cccc(-c2cn[nH]c2-c2c[nH]c(C(=O)N3CCCC3)c2)c1 [II-24] | < 1000 nM
19 | COc1cccc(-c2cn[nH]c2-c2c[nH]c(C(=O)NCCN(C)C)c2)c1 [II-25] | > 5000 nM
20 | COc1cccc(-c2cn[nH]c2-c2c[nH]c(C(=O)NCc3cccnc3)c2)c1 [II-26] | < 1000 nM
21 | COc1cccc(-c2cn[nH]c2-c2c[nH]c(C(=O)N3CCOCC3)c2)c1 [II-27] | < 1000 nM
22 | COc1cccc(-c2cn[nH]c2-c2c[nH]c(C(=O)N3CCN(C)CC3)c2)c1 [II-29] | > 5000 nM

Row | Compound | Ki
23 | COc1cccc(-c2cn[nH]c2-c2c[nH]c(C(=O)NCc3ccco3)c2)c1 [II-30] | < 1000 nM
24 | O=C(N[C@@H](CO)c1ccccc1)c1cc(-c2[nH]ncc2-c2cc(Cl)cc(Cl)c2)c[nH]1 [II-39] | < 1000 nM
25 | O=C(Nc1ccc(F)c(F)c1)c1cc(-c2[nH]ncc2-c2cccc(Br)c2)c[nH]1 [II-40] | < 1000 nM
26 | O=C(NC(CO)c1ccccc1)c1cc(-c2[nH]ncc2-c2cc(I)c(O)c([N+](=O)[O-])c2)c[nH]1 (centres unmarked) [II-42] | < 1000 nM
27 | Nc1cc(-c2cn[nH]c2-c2c[nH]c(C(=O)NC(CO)c3ccccc3)c2)cc(I)c1O (centres unmarked) [II-44] | < 1000 nM
28 | COc1cccc(CNC(=O)c2cc(-c3[nH]ncc3-c3cccc(Br)c3)c[nH]2)c1 [II-46] | < 1000 nM
29 | O=C(NCc1cccc(C(F)(F)F)c1)c1cc(-c2[nH]ncc2-c2cccc(Br)c2)c[nH]1 [II-47] | < 1000 nM
30 | O=C(NC(CO)c1ccccc1)c1cc(-c2[nH]ncc2-c2cccc(C(F)(F)F)c2)c[nH]1 (centres unmarked) [II-49] | < 1000 nM
31 | O=C(NCc1ccccc1)c1cc(-c2[nH]ncc2-c2cc(I)c(O)c([N+](=O)[O-])c2)c[nH]1 [II-52] | < 1000 nM
32 | CS(=O)(=O)c1ccc(CNC(=O)c2cc(-c3[nH]ncc3-c3cccc(Br)c3)c[nH]2)cc1 [II-55] | < 1000 nM
33 | O=C(NNc1cccc(C(F)(F)F)c1)c1cc(-c2[nH]ncc2-c2cccc(Br)c2)c[nH]1 [II-56] | < 1000 nM
34 | Cc1ccc(CNC(=O)c2cc(-c3[nH]ncc3-c3cccc(Br)c3)c[nH]2)o1 [II-58] | < 1000 nM
35 | O=C(NC(CCO)c1ccccc1)c1cc(-c2[nH]ncc2-c2cccc(Br)c2)c[nH]1 (centres unmarked) [II-59] | < 1000 nM
36 | Cc1ccccc1CNC(=O)c1cc(-c2[nH]ncc2-c2cccc(Br)c2)c[nH]1 [II-60] | < 1000 nM
37 | CCC(NC(=O)c1cc(-c2[nH]ncc2-c2cccc(Br)c2)c[nH]1)c1ccccc1 (centres unmarked) [II-62] | < 1000 nM
38 | O=C(NCc1ccccc1)c1cc(-c2[nH]ncc2-c2cccc(F)c2)c[nH]1 [II-63] | < 1000 nM
39 | O=C(NC[C@@H]1CCCC[C@@H]1O)c1cc(-c2[nH]ncc2-c2cccc(Br)c2)c[nH]1 [II-65] | < 1000 nM
40 | COc1cc(CNC(=O)c2cc(-c3[nH]ncc3-c3cccc(Br)c3)c[nH]2)cc(OC)c1 [II-68] | < 1000 nM
41 | COc1ccccc1CNC(=O)c1cc(-c2[nH]ncc2-c2cccc(Br)c2)c[nH]1 [II-69] | < 1000 nM
42 | Nc1cccc(-c2cn[nH]c2-c2c[nH]c(C(=O)NCc3ccccc3)c2)c1 [II-73] | < 1000 nM
43 | O=C(NCc1cccnc1)c1cc(-c2[nH]ncc2-c2ccc(Cl)c(Cl)c2)c[nH]1 [II-74] | < 1000 nM
44 | Cc1cccc(-c2cn[nH]c2-c2c[nH]c(C(=O)NC(CO)c3ccccc3)c2)c1 (centres unmarked) [II-75] | < 1000 nM

Row | Compound | Ki
45 | O=C(NCC1CCCO1)c1cc(-c2[nH]ncc2-c2cc(Cl)cc(Cl)c2)c[nH]1 (centres unmarked) [II-78] | < 1000 nM
46 | O=C(NCc1ccccc1)c1cc(-c2[nH]ncc2-c2cccc([N+](=O)[O-])c2)c[nH]1 [II-79] | < 1000 nM
47 | CN(Cc1ccccc1)C(=O)c1cc(-c2[nH]ncc2-c2cccc(Br)c2)c[nH]1 [II-83] | < 1000 nM
48 | O=C(NC(CCO)c1ccccc1)c1cc(-c2[nH]ncc2-c2cccc(Br)c2)c[nH]1 (centres unmarked) [II-86] | < 1000 nM
49 | O=C(c1cc(-c2[nH]ncc2-c2cccc(Br)c2)c[nH]1)N1CCc2ccccc2C1 [II-87] | < 1000 nM
50 | Cc1cccc(-c2cn[nH]c2-c2c[nH]c(C(=O)NCc3ccccc3)c2)c1 [II-90] | < 1000 nM
51 | O=C(N[C@@H](CO)Cc1ccccc1)c1cc(-c2[nH]ncc2-c2cccc(Br)c2)c[nH]1 [II-91] | < 1000 nM
52 | O=C(NCc1ccccc1)c1cc(-c2[nH]ncc2-c2ccc(Cl)cc2)c[nH]1 [II-92] | < 1000 nM
53 | O=C(NCc1ccccc1)c1cc(-c2[nH]ncc2-c2cccc(O)c2)c[nH]1 [II-95] | < 1000 nM
54 | Cc1cccc(-c2cn[nH]c2-c2c[nH]c(C(=O)NCc3ccncc3)c2)c1 [II-96] | < 1000 nM
55 | O=C(NCC1CCCO1)c1cc(-c2[nH]ncc2-c2ccc(F)c(Cl)c2)c[nH]1 (centres unmarked) [II-100] | < 1000 nM
56 | O=C(c1cc(-c2[nH]ncc2-c2cccc(Br)c2)c[nH]1)N1CCC(O)(c2ccccc2)CC1 [II-102] | < 1000 nM
57 | COc1cc2c(cc1OC)C(CO)N(C(=O)c1cc(-c3[nH]ncc3-c3cccc(Br)c3)c[nH]1)CC2 (centres unmarked) [II-105] | < 1000 nM
58 | O=C(c1cc(-c2[nH]ncc2-c2ccc(F)c(Cl)c2)c[nH]1)N1CCOCC1 [II-107] | < 1000 nM
59 | Nc1ccc(CNC(=O)c2cc(-c3[nH]ncc3-c3cccc(Br)c3)c[nH]2)cc1 [II-109] | < 1000 nM
60 | O=C(NCc1ccc(-c2cnns2)cc1)c1cc(-c2[nH]ncc2-c2cccc(Br)c2)c[nH]1 [II-110] | < 1000 nM
61 | O=C(NCc1ccccc1)c1cc(-c2[nH]ncc2-c2ccc(F)cc2)c[nH]1 [II-111] | < 1000 nM
62 | O=C(NCc1cccnc1)c1cc(-c2[nH]ncc2-c2ccc(F)c(F)c2)c[nH]1 [II-116] | 1000 to 5000 nM
63 | COc1ccc(-c2cn[nH]c2-c2c[nH]c(C(=O)NCc3ccccc3)c2)cc1 [II-117] | 1000 to 5000 nM
64 | COc1cc(OC)c(CNC(=O)c2cc(-c3[nH]ncc3-c3cccc(Br)c3)c[nH]2)c(OC)c1 [II-118] | 1000 to 5000 nM
65 | O=C(NCc1cccnc1)c1cc(-c2[nH]ncc2-c2cccc(F)c2)c[nH]1 [II-119] | 1000 to 5000 nM
66 | O=C(NCC1CCCO1)c1cc(-c2[nH]ncc2-c2ccc(F)c(F)c2)c[nH]1 (centres unmarked) [II-120] | 1000 to 5000 nM

Row | Compound | Ki
67 | CC(C)(C)OC(=O)N1CCCC(CNC(=O)c2cc(-c3[nH]ncc3-c3cccc(Cl)c3F)c[nH]2)C1 (centres unmarked) [II-121] | 1000 to 5000 nM
68 | COc1cccc(N2CCN(C(=O)c3cc(-c4[nH]ncc4-c4cccc(Br)c4)c[nH]3)CC2)c1 [II-122] | 1000 to 5000 nM
69 | O=C(c1cc(-c2[nH]ncc2-c2cccc(Br)c2)c[nH]1)N1CCC(O)(c2ccc(Br)cc2)CC1 [II-123] | 1000 to 5000 nM
70 | COc1ccc(OC)c(CNC(=O)c2cc(-c3[nH]ncc3-c3cccc(Br)c3)c[nH]2)c1 [II-124] | 1000 to 5000 nM
71 | CC(C)(C)OC(=O)N1CCCC(CNC(=O)c2cc(-c3[nH]ncc3-c3cc(Cl)cc(Cl)c3)c[nH]2)C1 (centres unmarked) [II-125] | 1000 to 5000 nM
72 | Cc1ccc(N2CCN(C(=O)c3cc(-c4[nH]ncc4-c4cccc(Br)c4)c[nH]3)CC2)cc1 [II-126] | 1000 to 5000 nM
73 | O=C(c1cc(-c2[nH]ncc2-c2ccc(Cl)c(Cl)c2)c[nH]1)N1CCOCC1 [II-127] | 1000 to 5000 nM
74 | O=C(c1cc(-c2[nH]ncc2-c2cccc(Br)c2)c[nH]1)N1CCN(c2ccc(F)cc2)CC1 [II-128] | 1000 to 5000 nM
75 | O=C(c1cc(-c2[nH]ncc2-c2cccc(Cl)c2F)c[nH]1)N1CCOCC1 [II-129] | 1000 to 5000 nM
76 | O=C(NCCO)c1cc(-c2[nH]ncc2-c2cccc(Br)c2)c[nH]1 [II-130] | 1000 to 5000 nM
77 | Nc1cccc(-c2cn[nH]c2-c2c[nH]c(C(=O)NCc3ccccc3)c2)c1 [II-131] | 1000 to 5000 nM
78 | COC(=O)c1cccc(-c2cn[nH]c2-c2c[nH]c(C(=O)NCc3ccccc3)c2)c1 [II-132] | 1000 to 5000 nM
79 | COc1ccc(-c2cn[nH]c2-c2c[nH]c(C(=O)NOCc3ccccc3)c2)cc1 [II-133] | 1000 to 5000 nM
80 | COc1cccc(-c2cn[nH]c2-c2c[nH]c(C(=O)N3CCOCC3)c2)c1 [II-135] | 1000 to 5000 nM
81 | CC1CCN(C(=O)c2cc(-c3[nH]ncc3-c3cccc(Cl)c3)c[nH]2)CC1 [II-136] | 1000 to 5000 nM
82 | NNC(=O)c1cc(-c2[nH]ncc2-c2cccc([N+](=O)[O-])c2)c[nH]1 [II-137] | 1000 to 5000 nM
83 | O=C(c1cc(-c2[nH]ncc2-c2cccc(Br)c2)c[nH]1)N1CCN(c2cnccn2)CC1 [II-138] | 1000 to 5000 nM
84 | O=C(c1cc(-c2[nH]ncc2-c2cccc(Br)c2)c[nH]1)N(CCCO)Cc1ccccc1 [II-139] | 1000 to 5000 nM
85 | O=C(NOCc1ccccc1)c1cc(-c2[nH]ncc2-c2ccc(F)cc2)c[nH]1 [II-146] | 1000 to 5000 nM
86 | CCOC(=O)c1cc(-c2[nH]ncc2-c2cccc([N+](=O)[O-])c2)c[nH]1 [II-148] | 1000 to 5000 nM
